In data set [1] the test system is HCT-116 (human colorectal carcinoma) cell line. The experiment in a line: MTT cytotoxicity assay, HCT-116. In kind it is cell-based. The note with it: 48 h incubation, mean ± SD. The protocol: (§1) HCT-116 (human colorectal carcinoma) and MCF-7 (human breast adenocarcinoma) cell lines were purchased from the American Type Culture Collection (Rockville, MD) and maintained in Dulbecco’s Modified Eagle’s Medium (DMEM) supplemented with 10% heat-inactivated foetal bovine serum (FBS), 100 U ml^−1 penicillin, and 100 U ml^−1 streptomycin. The cells were grown at 37 °C in a humidified atmosphere of 5% CO2.
(§2) Cytotoxicity activity against HCT-116 and MCF-7 was estimated by the 3-[4,5-dimethyl-2-thiazolyl)-2,5-diphenyl-2H-tetrazolium bromide (MTT) assay. This test is based on MTT cleavage by mitochondrial dehydrogenases from viable cells[43]^,[44]. Cells were placed in a 96-well sterile microplate (5 × 10^4 cells well^−1) and incubated at 37 °C in serum-free media containing dimethyl sulphoxide (DMSO) and either a series of various concentrations of each compound or doxorubicin (positive control) for 48 h before the MTT assay. After incubation, the media were removed and 40 µl MTT (2.5 mg ml^−1) was added to each well. Incubation was resumed for an additional 4 h. The purple formazan dye crystals were solubilised with 200 µl DMSO. Absorbance was measured at 590 nm in a Spectra Max Paradigm Multi-Mode microplate reader (Molecular Devices, LLC, San Jose, CA). Relative cell viability was expressed as the mean percentage of viable cells compared to the untreated control cells.
(§3) All experiments were conducted in triplicate and repeated on three different days. All values were reported as mean ± SD. The IC50 values were determined by SPSS Inc. probit analysis (IBM Corp., Armonk, NY).

Data set [2] concerns MCF-7 (human breast adenocarcinoma) cell line. The data set is described as follows: MTT cytotoxicity assay, MCF-7. In kind it is cell-based. The conditions noted are these: 48 h incubation, mean ± SD. The protocol: as §1, §2, §3
For orientation: Tetrazolium dyes change colour on reduction, which living cells bring about.

Data set [3] deals with mutant EGFR kinase type L858R (Homo sapiens, UniProt P00533, L858R). The experiment in a line: In vitro kinase inhibition assay (Kinase-Glo Max luminescence). The note with it: IC50 (mean ± SEM) (µM) EGFR, mean of three values ± SEM. For orientation: Kinase-Glo reads ATP consumption through a luciferase reaction.
Sequence of mutant EGFR kinase type L858R (P00533 25-1210 L858R): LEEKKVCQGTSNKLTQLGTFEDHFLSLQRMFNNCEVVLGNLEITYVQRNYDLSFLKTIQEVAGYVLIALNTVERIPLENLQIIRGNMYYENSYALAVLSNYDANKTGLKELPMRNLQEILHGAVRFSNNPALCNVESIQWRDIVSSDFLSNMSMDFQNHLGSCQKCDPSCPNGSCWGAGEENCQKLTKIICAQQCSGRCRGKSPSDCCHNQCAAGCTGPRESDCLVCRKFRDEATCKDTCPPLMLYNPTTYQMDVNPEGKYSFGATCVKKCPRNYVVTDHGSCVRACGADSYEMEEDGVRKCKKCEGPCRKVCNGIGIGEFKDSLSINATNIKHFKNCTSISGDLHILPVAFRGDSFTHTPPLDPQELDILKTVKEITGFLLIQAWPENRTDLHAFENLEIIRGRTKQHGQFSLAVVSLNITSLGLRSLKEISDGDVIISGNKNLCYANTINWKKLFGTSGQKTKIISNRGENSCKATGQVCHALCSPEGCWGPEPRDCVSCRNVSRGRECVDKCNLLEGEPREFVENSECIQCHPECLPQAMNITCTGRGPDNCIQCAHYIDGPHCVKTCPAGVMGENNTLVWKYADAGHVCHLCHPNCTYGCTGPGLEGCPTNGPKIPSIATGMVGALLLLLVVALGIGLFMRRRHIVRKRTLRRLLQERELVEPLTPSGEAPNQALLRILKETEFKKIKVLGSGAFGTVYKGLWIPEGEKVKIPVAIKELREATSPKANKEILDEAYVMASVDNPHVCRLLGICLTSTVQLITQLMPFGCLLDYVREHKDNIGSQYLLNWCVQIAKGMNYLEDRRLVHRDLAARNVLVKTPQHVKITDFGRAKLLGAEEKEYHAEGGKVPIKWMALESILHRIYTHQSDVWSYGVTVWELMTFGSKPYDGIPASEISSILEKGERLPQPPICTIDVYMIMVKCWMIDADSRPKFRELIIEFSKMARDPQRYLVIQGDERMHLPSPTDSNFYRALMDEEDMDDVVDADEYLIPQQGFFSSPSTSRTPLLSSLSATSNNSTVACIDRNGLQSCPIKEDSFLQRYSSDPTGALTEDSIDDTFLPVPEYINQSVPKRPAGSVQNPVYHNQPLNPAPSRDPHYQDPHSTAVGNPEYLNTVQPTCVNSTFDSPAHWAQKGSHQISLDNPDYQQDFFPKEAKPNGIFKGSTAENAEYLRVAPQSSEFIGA
Procedure: The master mixture (6 μl 5× kinase buffer + 1 μl ATP (500 μM)+1 μl 50× PTK substrate + 17 μl water) was prepared then, 25 μl to every well was added. Five microlitres of inhibitor solution of each well labelled as “Test Inhibitor” was added. However, for the “Positive Control” and “Blank”, 5 μl of the same solution without inhibitor (inhibitor buffer) was added. Three millilitres of 1× kinase buffer by mixing 600 μl of 5× kinase buffer with 2400 μl water was prepared. […] To the wells designated as “Blank”, 20 μl of 1× kinase buffer was added. EGFR enzyme on ice was thawed. Upon first thaw, briefly the tube containing enzyme was spun to recover full content of the tube. The amount of EGFR required for the assay and dilute enzyme to 1 ng/μl with 1× kinase buffer was calculated. Moreover, the remaining undiluted enzyme in aliquots was stored at –80 °C. The reaction was initiated by adding 20 μl of diluted EGFR enzyme to the wells designated “Positive Control” and “Test Inhibitor Control”, after that it was incubated at 30 °C for 40 min. After the 40 minutes’ reaction, 50 μl of Kinase-Glo Max reagent was added to each well and the plate was covered with aluminium foil and incubated at room temperature for 15 min. Luminescence was measured using the microplate reader.

Structures are written as SMILES.

These results are taken from article PMC8759726, “Click chemistry based synthesis, cytotoxic activity and molecular docking of novel triazole-thienopyrimidine hybrid glycosides targeting EGFR” (Journal of Enzyme Inhibition and Medicinal Chemistry, 2021).

As usually defined, the melting point is the temperature, or range, at which the solid turns liquid. By IC50 is commonly meant the concentration needed to halve the response being measured.

`C#CCSc1nc2sc3c(c2c(=O)n1N)CCC3` [Compound 2, 3-Amino-2-(prop-2-yn-1-ylthio)-3,5,6,7-tetrahydro-4H-cyclopenta[4,5]thieno[2,3-d]pyrimidin-4-one] came in with a melting point of 181 to 182 °C. In data set [1] (Homo sapiens, HCT-116, 48 h), the IC50 was 8.6 ± 1.9 µM. This molecule yielded an IC50 in data set [2] (Homo sapiens, MCF7, 48 h) of 2.1 ± 0.3 µM. This molecule yielded a half-inhibitory concentration (IC50) in data set [3] of 0.5 ± 1 µM.
The molecule `CC(=O)OC[C@H]1O[C@@H](n2cc(CSc3nc4sc5c(c4c(=O)n3N)CCC5)nn2)[C@H](OC(C)=O)[C@@H](OC(C)=O)[C@@H]1OC(C)=O` [Compound 4, 3-Amino-2-(((1-(2,3,4,6-tetra-O-acetyl-β-D-glucopyranosyl)-1H-1,2,3-triazol-4-yl)methyl)thio)-3,5,6,7-tetrahydro-4H-cyclopenta [4,5]thieno[2,3-d]pyrimidin-4-one] registered a melting point of 151 to 152 °C.
For `CC(=O)OC1COC(n2cc(CSc3nc4sc5c(c4c(=O)n3N)CCC5)nn2)C(OC(C)=O)C1OC(C)=O` [Compound 5, 3-Amino-2-(((1-(2,3,4-tri-O-acetyl-β-D-xyloopyranosyl)-1H-1,2,3-triazol-4-yl)methyl)thio)-3,5,6,7-tetrahydro-4H-cyclopenta[4,5]thieno[2,3-d]pyrimidin-4-one], the melting point fell in the range of 155 to 156 °C. In data set [1] (Homo sapiens, HCT-116, 48 h), the IC50 was 8.6 ± 0.9 µM. This molecule gave an IC50 in data set [2] (Homo sapiens, MCF7, 48 h) of 2.9 ± 0.4 µM. Moreover, inhibition in data set [3] was half-maximal at 0.13 µM (IC50).
In turn, `Nn1c(SCc2cn([C@@H]3OC[C@@H](O)[C@H](O)[C@H]3O)nn2)nc2sc3c(c2c1=O)CCC3` [Compound 7, 3-Amino-2-(((1-(β-D-xylopyranosyl)-1H-1,2,3-triazol-4-yl)methyl)thio)-3,5,6,7-tetrahydro-4H-cyclopenta[4,5]thieno[2,3-d]pyrimidin-4-one] returned a melting point of 189 to 190 °C. Also, half-maximal inhibition in data set [1] (Homo sapiens, HCT-116, 48 h) (IC50) required 8.7 ± 1.5 µM. 4.3 ± 0.8 µM corresponded to half-maximal inhibition in data set [2] (Homo sapiens, MCF7, 48 h) (IC50). The same molecule yielded an IC50 in data set [3] of 0.17 ± 0.43 µM.
Molecule `CC(=O)OCC1OC(OCc2cn(CCSc3nc4sc5c(c4c(=O)n3N)CCC5)nn2)C(OC(C)=O)C(OC(C)=O)C1OC(C)=O` [Compound 13, 3-Amino-2-(ethylylthio)-{2-[4-({[2,3,4,6-tetra-O-acetyl-β-D-glucopyranosyl]oxy}methyl)-1H-1,2,3-triazol-1-yl]ethoxy}-3,5,6,7-tetrahydro-4H-cyclopenta[4,5]thieno[2,3-d] pyrimidin-4-one] had a melting point of 159 to 160 °C. Also, 8.7 ± 1.6 µM corresponded to half-maximal inhibition in data set [1] (Homo sapiens, HCT-116, 48 h) (IC50). Also, half-maximal inhibition in data set [2] (Homo sapiens, MCF7, 48 h) (IC50) was put at 4.2 ± 0.5 µM.
`CC(=O)OCC1OC(OCc2cn(CCSc3nc4sc5c(c4c(=O)n3N)CCC5)nn2)C(OC(C)=O)C(OC(C)=O)C1OC(C)=O` (stereo not drawn) [Compound 14] displayed a melting point of 156 to 157 °C. Inhibition in data set [1] was half-maximal at 8.8 ± 1.1 µM (IC50). In addition, 4.5 ± 0.7 µM corresponded to half-maximal inhibition in data set [2] (IC50). This molecule returned a concentration for half-maximal inhibition (IC50) in data set [3] of 0.013 µM.
Regarding `CC(=O)OC1COC(OCc2cn(CCSc3nc4sc5c(c4c(=O)n3N)CCC5)nn2)C(OC(C)=O)C1OC(C)=O` (stereo not drawn) [Compound 15], the melting point was 153 to 154 °C. Besides, the half-maximal inhibitory concentration (IC50) in data set [1] (Homo sapiens, HCT-116, 48 h) turned out to be 8.9 ± 1.1 µM. It took 5 ± 0.9 µM to reach half-maximal inhibition in data set [2] (Homo sapiens, MCF7, 48 h) (IC50). In data set [3], this molecule returned an IC50 of 0.017 µM.
Take `CC(=O)OCC1OC(OCc2cn(CCCCSc3nc4sc5c(c4c(=O)n3N)CCC5)nn2)C(OC(C)=O)C(OC(C)=O)C1OC(C)=O` (stereo not drawn) [Compound 16]: the melting point lay within 163 to 164 °C. The IC50 in data set [1] (Homo sapiens, HCT-116, 48 h) was found to be 8.1 ± 0.8 µM. This molecule also displayed an IC50 in data set [2] (Homo sapiens, MCF7, 48 h) of 5.3 ± 0.8 µM.
With `CC(=O)OCC1OC(OCc2cn(CCCCSc3nc4sc5c(c4c(=O)n3N)CCC5)nn2)C(OC(C)=O)C(OC(C)=O)C1OC(C)=O` (stereo not drawn) [Compound 17], the melting point lay in the range of 159 to 160 °C. Also, the half-inhibitory concentration (IC50) in data set [1] was determined as 8.4 ± 1.1 µM. Moreover, in data set [2], the IC50 was determined as 5.2 ± 0.9 µM. The IC50 in data set [3] is 0.02 µM.
Consider `COc1cccc2c1C(=O)c1c(O)c3c(c(O)c1C2=O)C[C@@](O)(C(=O)CO)C[C@@H]3O[C@H]1C[C@H](N)[C@H](O)[C@H](C)O1` [Doxorubicin, reference compound], for which the IC50 was found to be 7.8 ± 0.7 µM in data set [1] (Homo sapiens, HCT-116, 48 h) and 6.7 ± 0.9 µM in data set [2] (Homo sapiens, MCF7, 48 h).
